Measurements: PubChem BioAssay AID1745844 (Carcinogenic Potency Database (CPDB), 2022)
Several values for one entry are separate records, joined by “and”; a condition that tells them apart may be missing. Equal entries are not always repeated. Activity calls are given as the source filed them. How the calls were made is not given here.

Tested on: rodent lifetime carcinogenesis bioassay, tumor incidence TD50
Test: chronic cancer bioassays in animals – CPDB, compiled studies (AID 1745844)

SMILES: O=Nc1ccc(Nc2ccccc2)cc1
- TD50 (mouse, strain B6C3F1, females, in feed, site: any site (literature study), lesion: several types, types named in the paper, dosed 53 weeks, study length 92 weeks): 2170 mg/kg/day (inactive)
- TD50 (mouse, strain B6C3F1, females, in feed, site: liver, lesion: hepatocellular adenoma + hepatocellular carcinoma + neoplastic nodule, dosed 53 weeks, study length 92 weeks): 2250 mg/kg/day
- TD50 (mouse, strain B6C3F1, females, in feed, site: lung, lesion: alveolar/bronchiolar adenoma + alveolar/bronchiolar carcinoma, dosed 53 weeks, study length 92 weeks): 5410 mg/kg/day
- TD50 (mouse, strain B6C3F1, males, in feed, site: any site (literature study), lesion: several types, types named in the paper, dosed 53 weeks, study length 92 weeks): 260 mg/kg/day
- TD50 (mouse, strain B6C3F1, males, in feed, site: liver, lesion: hepatocellular adenoma + hepatocellular carcinoma + neoplastic nodule, dosed 53 weeks, study length 92 weeks): 340 mg/kg/day
- TD50 (mouse, strain B6C3F1, males, in feed, site: liver, lesion: hepatocellular adenoma + hepatocellular carcinoma, dosed 53 weeks, study length 92 weeks): 340 mg/kg/day
- TD50 (mouse, strain B6C3F1, males, in feed, site: liver, lesion: hepatocellular carcinoma, dosed 53 weeks, study length 92 weeks): 661 mg/kg/day
- TD50 (mouse, strain B6C3F1, males, in feed, site: lung, lesion: alveolar/bronchiolar adenoma + alveolar/bronchiolar carcinoma, dosed 53 weeks, study length 92 weeks): 3520 mg/kg/day
- carcinogen call (rat, strain Fischer 344, females, in feed, site: any site (literature study), lesion: several types, types named in the paper, dosed 78 weeks, study length 105 weeks): negative (inactive)
- TD50 (rat, strain Fischer 344, females, in feed, site: liver, lesion: hepatocellular adenoma + hepatocellular carcinoma + neoplastic nodule, dosed 78 weeks, study length 105 weeks): 1210 mg/kg/day
- TD50 (rat, strain Fischer 344, males, in feed, site: liver, lesion: hepatocellular adenoma + hepatocellular carcinoma + neoplastic nodule, dosed 78 weeks, study length 105 weeks): 201 mg/kg/day
- TD50 (rat, strain Fischer 344, males, in feed, site: liver, lesion: hepatocellular carcinoma + neoplastic nodule, dosed 78 weeks, study length 105 weeks): 201 mg/kg/day

SMILES: CCCCCCCCCCCCN(C)N=O
- TD50 (rat, strain Fischer 344, females, by gavage, site: lung, lesion: one or several types, types not named, dosed 30 weeks, study length 65 weeks): 1.32 mg/kg/day
- TD50 (rat, strain Fischer 344, females, by gavage, site: urinary bladder, lesion: one or several types, types not named, dosed 30 weeks, study length 65 weeks): 0.656 mg/kg/day
- TD50 (rat, strain Fischer 344, males, by gavage, site: all sites, lesion: leukemia, dosed 30 weeks, study length 112 weeks): 0.97 mg/kg/day
- carcinogen call (rat, strain Fischer 344, males, by gavage, site: any site (literature study), lesion: several types, types named in the paper, dosed 30 weeks, study length 112 weeks): positive
- TD50 (rat, strain Fischer 344, males, by gavage, site: forestomach, lesion: carcinoma, dosed 30 weeks, study length 112 weeks): 5.07 mg/kg/day
- TD50 (rat, strain Fischer 344, males, by gavage, site: forestomach, lesion: papilloma, dosed 30 weeks, study length 112 weeks): 13.9 mg/kg/day
- TD50 (rat, strain Fischer 344, males, by gavage, site: liver, lesion: hepatocellular carcinoma, dosed 30 weeks, study length 112 weeks): 8.98 mg/kg/day
- TD50 (rat, strain Fischer 344, males, by gavage, site: lung, lesion: adenocarcinoma, dosed 30 weeks, study length 112 weeks): 6.54 mg/kg/day
- TD50 (rat, strain Fischer 344, males, by gavage, site: lung, lesion: adenoma, dosed 30 weeks, study length 112 weeks): 28.5 mg/kg/day
- TD50 (rat, strain Fischer 344, males, by gavage, site: pancreatic islets, lesion: islet-cell carcinoma, dosed 30 weeks, study length 112 weeks): 2.75 mg/kg/day
- carcinogen call (rat, strain Fischer 344, males, by gavage, site: urinary bladder, lesion: transitional-cell carcinoma, dosed 28 weeks, study length 66 weeks): positive
- TD50 (rat, strain Fischer 344, males, by gavage, site: urinary bladder, lesion: transitional-cell carcinoma, dosed 30 weeks, study length 112 weeks): 0.487 mg/kg/day

SMILES: Cc1cc(Cl)ccc1N
- TD50 (mouse, strain B6C3F1, females, in feed, site: all sites, lesion: hemangioma + hemangiosarcoma, dosed 95 weeks, study length 99 weeks): 40 mg/kg/day
- TD50 (mouse, strain B6C3F1, females, in feed, site: all sites, lesion: hemangiosarcoma, dosed 95 weeks, study length 99 weeks): 42.3 mg/kg/day
- TD50 (mouse, strain B6C3F1, females, in feed, site: any site (literature study), lesion: several types, types named in the paper, dosed 95 weeks, study length 99 weeks): 38.8 mg/kg/day
- TD50 (mouse, strain B6C3F1, females, in feed, site: liver, lesion: hepatocellular adenoma + hepatocellular carcinoma + neoplastic nodule, dosed 95 weeks, study length 99 weeks): 754 mg/kg/day
- TD50 (mouse, strain B6C3F1, females, in feed, site: lung, lesion: alveolar/bronchiolar adenoma + alveolar/bronchiolar carcinoma, dosed 95 weeks, study length 99 weeks): 798 mg/kg/day
- TD50 (mouse, strain B6C3F1, males, in feed, site: all sites, lesion: hemangioma + hemangiosarcoma, dosed 99 weeks, study length 99 weeks): 743 mg/kg/day
- TD50 (mouse, strain B6C3F1, males, in feed, site: all sites, lesion: hemangiosarcoma, dosed 99 weeks, study length 99 weeks): 911 mg/kg/day
- TD50 (mouse, strain B6C3F1, males, in feed, site: any site (literature study), lesion: several types, types named in the paper, dosed 99 weeks, study length 99 weeks): 537 mg/kg/day
- TD50 (mouse, strain B6C3F1, males, in feed, site: liver, lesion: hepatocellular adenoma + hepatocellular carcinoma + neoplastic nodule, dosed 99 weeks, study length 99 weeks): 3260 mg/kg/day
- TD50 (mouse, strain CD-1 HaM/ICR, females, in feed, site: all sites, lesion: all vascular tumors, dosed 51 weeks, study length 60 weeks): 15.7 mg/kg/day and 18.4 mg/kg/day
- TD50 (mouse, strain CD-1 HaM/ICR, females, in feed, site: any site (literature study), lesion: several types, types named in the paper, dosed 51 weeks, study length 60 weeks): 15.6 mg/kg/day
- TD50 (mouse, strain CD-1 HaM/ICR, females, in feed, site: liver, lesion: several types, types named in the paper, dosed 51 weeks, study length 60 weeks): 139 mg/kg/day (inactive)
- TD50 (mouse, strain CD-1 HaM/ICR, females, in feed, site: lung, lesion: several types, types named in the paper, dosed 51 weeks, study length 60 weeks): 153 mg/kg/day (inactive)
- TD50 (mouse, strain CD-1 HaM/ICR, males, in feed, site: all sites, lesion: all vascular tumors, dosed 55 weeks, study length 60 weeks): 15.4 mg/kg/day
- TD50 (mouse, strain CD-1 HaM/ICR, males, in feed, site: any site (literature study), lesion: several types, types named in the paper, dosed 55 weeks, study length 60 weeks): 7.72 mg/kg/day
- TD50 (mouse, strain CD-1 HaM/ICR, males, in feed, site: liver, lesion: several types, types named in the paper, dosed 55 weeks, study length 60 weeks): 95.7 mg/kg/day (inactive)
- TD50 (mouse, strain CD-1 HaM/ICR, males, in feed, site: lung, lesion: several types, types named in the paper, dosed 55 weeks, study length 60 weeks): 8.85 mg/kg/day (inactive)
- TD50 (rat, strain Charles River CD (Sprague-Dawley), males, in feed, site: any site (literature study), lesion: several types, types named in the paper, dosed 77 weeks, study length 98 weeks): 24.9 mg/kg/day (inactive)
- TD50 (rat, strain Charles River CD (Sprague-Dawley), males, in feed, site: liver, lesion: several types, types named in the paper, dosed 77 weeks, study length 98 weeks): 123 mg/kg/day (inactive)
- carcinogen call (rat, strain Fischer 344, females, in feed, site: any site (literature study), lesion: several types, types named in the paper, dosed 107 weeks, study length 107 weeks): negative (inactive)
- TD50 (rat, strain Fischer 344, males, in feed, site: liver, lesion: hepatocellular adenoma + hepatocellular carcinoma + neoplastic nodule, dosed 107 weeks, study length 107 weeks): 6180 mg/kg/day
- TD50 (rat, strain Fischer 344, males, in feed, site: pituitary gland, lesion: chromophobe adenoma, dosed 107 weeks, study length 107 weeks): 576 mg/kg/day (inactive)

SMILES: ClCOCCOCCl
- TD50 (mouse, strain Ha/ICR, females, i.p., site: abdomen, lesion: several types, types named in the paper, dosed 78 weeks, study length 78 weeks): 4.62 mg/kg/day

SMILES: CCCCNC(=O)NS(=O)(=O)c1ccc(C)cc1
- TD50 (mouse, strain B6C3F1, females, in feed, site: any site (literature study), lesion: several types, types named in the paper, dosed 78 weeks, study length 103 weeks): 24200 mg/kg/day (inactive)
- carcinogen call (mouse, strain B6C3F1, males, in feed, site: any site (literature study), lesion: several types, types named in the paper, dosed 78 weeks, study length 102 weeks): negative (inactive)
- carcinogen call (rat, strain Fischer 344, females, in feed, site: any site (literature study), lesion: several types, types named in the paper, dosed 78 weeks, study length 106 weeks): negative (inactive)
- carcinogen call (rat, strain Fischer 344, males, in feed, site: any site (literature study), lesion: several types, types named in the paper, dosed 78 weeks, study length 106 weeks): negative (inactive)

SMILES: CC1(C)S[C@@H]2[C@H](NC(=O)COc3ccccc3)C(=O)N2[C@H]1C(=O)O
- carcinogen call (mouse, strain B6C3F1, females, by gavage, site: any site (literature study), lesion: several types, types named in the paper, dosed 104 weeks, study length 104 weeks): negative (inactive)
- TD50 (mouse, strain B6C3F1, females, by gavage, site: liver, lesion: hepatocellular adenoma + hepatocellular carcinoma + neoplastic nodule, dosed 104 weeks, study length 104 weeks): 10200 mg/kg/day
- TD50 (mouse, strain B6C3F1, females, by gavage, site: lung, lesion: alveolar/bronchiolar adenoma + alveolar/bronchiolar carcinoma, dosed 104 weeks, study length 104 weeks): 16600 mg/kg/day
- carcinogen call (mouse, strain B6C3F1, males, by gavage, site: any site (literature study), lesion: several types, types named in the paper, dosed 104 weeks, study length 104 weeks): negative (inactive)
- TD50 (rat, strain Fischer 344, females, by gavage, site: any site (literature study), lesion: several types, types named in the paper, dosed 103 weeks, study length 104 weeks): 503 mg/kg/day
- TD50 (rat, strain Fischer 344, females, by gavage, site: clitoral gland, lesion: adenoma, NOS, dosed 103 weeks, study length 104 weeks): 3650 mg/kg/day
- TD50 (rat, strain Fischer 344, females, by gavage, site: thyroid gland, lesion: c-cell adenoma + c-cell carcinoma, dosed 103 weeks, study length 104 weeks): 1360 mg/kg/day (inactive)
- TD50 (rat, strain Fischer 344, females, by gavage, site: thyroid gland, lesion: c-cell adenoma, dosed 103 weeks, study length 104 weeks): 1620 mg/kg/day
- TD50 (rat, strain Fischer 344, males, by gavage, site: any site (literature study), lesion: several types, types named in the paper, dosed 103 weeks, study length 104 weeks): 544 mg/kg/day
- TD50 (rat, strain Fischer 344, males, by gavage, site: liver, lesion: hepatocellular adenoma + hepatocellular carcinoma + neoplastic nodule, dosed 103 weeks, study length 104 weeks): 12200 mg/kg/day
- TD50 (rat, strain Fischer 344, males, by gavage, site: pituitary gland, anterior, lesion: adenoma, NOS + carcinoma, NOS, dosed 103 weeks, study length 104 weeks): 874 mg/kg/day (inactive)
- TD50 (rat, strain Fischer 344, males, by gavage, site: pituitary gland, anterior, lesion: adenoma, NOS, dosed 103 weeks, study length 104 weeks): 949 mg/kg/day

SMILES: CCCc1ccc2c(c1)OCO2
- TD50 (mouse, strain B6AKF1, females, oral dosing, site: any site (literature study), lesion: several types, types named in the paper, dosed 81 weeks, study length 81 weeks): 305 mg/kg/day
- TD50 (mouse, strain B6AKF1, females, oral dosing, site: liver, lesion: angioma, dosed 81 weeks, study length 81 weeks): 1400 mg/kg/day
- TD50 (mouse, strain B6AKF1, females, oral dosing, site: lung, lesion: adenoma, dosed 81 weeks, study length 81 weeks): 739 mg/kg/day
- TD50 (mouse, strain B6AKF1, females, oral dosing, site: stomach, lesion: papilloma, dosed 81 weeks, study length 81 weeks): 84.7 mg/kg/day
- TD50 (mouse, strain B6AKF1, males, oral dosing, site: any site (literature study), lesion: several types, types named in the paper, dosed 81 weeks, study length 81 weeks): 86.6 mg/kg/day
- TD50 (mouse, strain B6AKF1, males, oral dosing, site: liver, lesion: hepatoma, dosed 81 weeks, study length 81 weeks): 117 mg/kg/day
- TD50 (mouse, strain B6AKF1, males, oral dosing, site: lung, lesion: adenoma, dosed 81 weeks, study length 81 weeks): 323 mg/kg/day
- TD50 (mouse, strain B6AKF1, males, oral dosing, site: lung, lesion: several types, types named in the paper, dosed 81 weeks, study length 81 weeks): 448 mg/kg/day
- TD50 (mouse, strain B6C3F1, females, oral dosing, site: any site (literature study), lesion: several types, types named in the paper, dosed 81 weeks, study length 81 weeks): 170 mg/kg/day
- TD50 (mouse, strain B6C3F1, females, oral dosing, site: lung, lesion: adenoma, dosed 81 weeks, study length 81 weeks): 230 mg/kg/day
- TD50 (mouse, strain B6C3F1, males, oral dosing, site: any site (literature study), lesion: several types, types named in the paper, dosed 81 weeks, study length 81 weeks): 107 mg/kg/day
- TD50 (mouse, strain B6C3F1, males, oral dosing, site: liver, lesion: hepatoma, dosed 81 weeks, study length 81 weeks): 90 mg/kg/day
- TD50 (mouse, strain B6C3F1, males, oral dosing, site: lung, lesion: adenoma, dosed 81 weeks, study length 81 weeks): 358 mg/kg/day
- TD50 (rat, strain Osborne-Mendel, both sexes, in feed, site: esophagus, lesion: several types, types named in the paper, dosed 104 weeks, study length 104 weeks): 143 mg/kg/day

SMILES: Nc1nc(-c2ccc([N+](=O)[O-])cc2)cs1
- TD50 (mouse, strain Swiss, females, in feed, site: all sites, lesion: lymphocytic leukemia, dosed 46 weeks, study length 66 weeks): 9.95 mg/kg/day
- TD50 (mouse, strain Swiss, females, in feed, site: any site (literature study), lesion: several types, types named in the paper, dosed 46 weeks, study length 66 weeks): 9.95 mg/kg/day
